Several values for one entry are separate records, joined by “and”; a condition that tells them apart may be missing. Equal values may be shown once. Entries after “also recorded” stand apart in the source; their conditions may differ.
Assays:
rat thoracic aorta rings [1] = experiment: Antagonism of UII- or URP-induced contraction of rat aortic ring; assay type: cell-based
Description: Male rats (Sprague-Dawley, 250-300 g) were killed by CO2 asphyxiation. The thoracic aorta was then cleared of surrounding tissues and excised from aortic arch to the diaphragm. From each vessel, conjunctive tissues were removed and the clean vessel was cut into 4 mm rings. The endothelium was removed by gently rubbing the vessel's intimal surface. All preparations were placed in 5 ml organ baths filled with oxygenated normal Krebs-Henselheit solution. Contractile responses to 40 mM KCl were used as control at the beginning and at the end of each experiment. Agonistic activity was measured by increasing the concentration of the peptide in the organ chamber (3×10^−11-3×10^−6 M). For antagonist behaviour, thoracic aortic rings were first exposed to URP derivative over a period of 15 min, and then cumulative concentration-response curves to hUII, URP or ET-1 (10^−10-3×10^−6 M) were constructed. The amplitude of the contraction induced by each concentration of peptide was expressed as a percentage of the KCl-induced contraction. Finally, the ability of the antagonist to reverse the hUII-induced contraction was also evaluated. Vessels were pre-contracted with 4 nM hUII (pre-determined EC80) and after the maximum contraction was attained, contractile tone was reversed by adding increasing log unit concentrations of URP derivative. […] Binding and functional experiments were performed at least in triplicate and data, expressed as mean±S.E.M, were analyzed using the Prism software (Graph Pad Software, San Diego, Calif.). In all experiments, n represents the total number of animals studied or individual assays performed. The EC50, pEC50, pIC50 values as well as the Emax value were determined from the concentration-response curves using a sigmoidal dose-response fit with variable slope. Non-competitive antagonist affinities (pKb) were determined using the method of Gaddum where equiactive concentrations of agonist, in the absence or presence of URP derivative, were compared in a linear regression. The resulting slope was used to calculate the equilibrium constant Kb using the following equation: Kb=[B]/(slope−1); where [B] is the antagonist concentration. The slope is calculated from the double reciprocal plot of equiactive concentrations of agonist in the presence and absence of antagonist.

rat thoracic aorta rings [2] = experiment: Effect on ET-1-induced contraction of rat aortic ring; assay type: cell-based; conditions: [Bip^4]URP 10^−6M
Description: Male rats (Sprague-Dawley, 250-300 g) were killed by CO2 asphyxiation. The thoracic aorta was then cleared of surrounding tissues and excised from aortic arch to the diaphragm. From each vessel, conjunctive tissues were removed and the clean vessel was cut into 4 mm rings. The endothelium was removed by gently rubbing the vessel's intimal surface. All preparations were placed in 5 ml organ baths filled with oxygenated normal Krebs-Henselheit solution. Contractile responses to 40 mM KCl were used as control at the beginning and at the end of each experiment. Agonistic activity was measured by increasing the concentration of the peptide in the organ chamber (3×10^−11-3×10^−6 M). For antagonist behaviour, thoracic aortic rings were first exposed to URP derivative over a period of 15 min, and then cumulative concentration-response curves to hUII, URP or ET-1 (10^−10-3×10^−6 M) were constructed. The amplitude of the contraction induced by each concentration of peptide was expressed as a percentage of the KCl-induced contraction. Finally, the ability of the antagonist to reverse the hUII-induced contraction was also evaluated. Vessels were pre-contracted with 4 nM hUII (pre-determined EC80) and after the maximum contraction was attained, contractile tone was reversed by adding increasing log unit concentrations of URP derivative.

anaesthetized rats = experiment: Hemodynamic assessment (arterial blood pressure) in anaesthetized rats; assay type: in vivo, rat; conditions: for Intrinsic effect on blood pressure: anaesthetized rats
Description: Male Sprague-Dawley rats, weighing 350-400 g, were anaesthetized by isoflurane inhalation delivered in 100% oxygen (1 l/min) from an Ohmeda Tec 4 anaesthetic vaporizer (Somatechnology, Inc., Bloomfield, Conn., USA). Anaesthesia was maintained by mask inhalation of isoflurane vaporized at concentrations of up to 3% in the induction phase, at 1.5% during acute surgical procedures and at 0.8-1.0% during experimental observations. […]. […] A period of stabilisation of 30 min was observed and the following experimental protocols were then performed and arterial blood pressure was evaluated. During isoflurane inhalation, no breathing complications or changes in blood pressure were observed. […].
In a preliminary study, individual rats received a single i.v. injection of hUII ranging from 1 to 30 nmol/kg. A dose-response curve, reflecting the effect of hUII on the change in blood pressure, was then determined.
In this set of experiments, five groups of rats were used. […] […]. Hemodynamic changes were continuously captured by the pressure probe over a period of 1 h. The maximum rise and the maximum drop in blood pressure was determined and analyzed using the PowerLab software (ADInstruments, Colorado Springs, Colo., USA).
In the control group, the rats received two doses of hUII (10 nmol/kg) with a 30 min interval between the first and second injection.

[3] = 1000 nmol/kg bolus, 30 min before hUII 10 nmol/kg

Question: What does the source list for `CC(C)[C@H](NC(=O)[C@@H]1CSSC[C@H](NC(=O)[C@H](C)N)C(=O)N[C@@H](Cc2ccccc2)C(=O)N[C@@H](Cc2ccc(-c3ccccc3)cc2)C(=O)N[C@@H](CCCCN)C(=O)N[C@@H](Cc2ccc(O)cc2)C(=O)N1)C(=O)O` [[Bip^4]URP, H-Ala-Cys-Phe-Bip-Lys-Tyr-Cys-Val-OH]?
Answer: Effect on URP-induced contraction (in words) (rat thoracic aorta rings [1]): but not URP; Effect on hUII-induced contraction (in words) (rat thoracic aorta rings [1]): suppressed the maximum contractile response to hUII in a concentration-dependent manner; pKb (non-competitive antagonism of hUII) (rat thoracic aorta rings [1]; 1 μM [Bip^4]URP, method of Gaddum): 7.15; Slope of double reciprocal plot of equiactive hUII concentrations (method of Gaddum) (rat thoracic aorta rings [1]; absence and presence of 1 μM [Bip^4]URP): 15.00±0.62 and 15.0±0.6; Effect on ET-1-induced contraction (in words) (rat thoracic aorta rings [2]): not able to alter the concentration-response curves; also recorded: did not inhibit or potentiate; Effect on hUII hemodynamic profile (anaesthetized rats; 0.1 μmol/kg): no effect; Intrinsic effect on blood pressure (anaesthetized rats; 100 nmol/kg (0.1 μmol/kg) i.v.): No effect; Intrinsic effect on blood pressure (anaesthetized rats; 100 nmol/kg (0.1 μmol/kg) i.v., listed as urocontrin): no detectable effect; Intrinsic effect on blood pressure (anaesthetized rats; 1000 nmol/kg (1 μmol/kg) i.v.): hypotensive effect comparable with that of hUII; Intrinsic effect on blood pressure (anaesthetized rats; 1000 nmol/kg (1 μmol/kg) i.v., listed as urocontrin): hypotension comparable with that of hUII; Effect on hUII hypotensive action (anaesthetized rats; [3]): significantly reduced; Effect on hUII pressor effect (anaesthetized rats; [3]): keeping intact; Effect on hUII pressor effect (anaesthetized rats; 1000 nmol/kg bolus, 30 min before hUII 10 nmol/kg, listed as urocontrin): preserving; Effect on biphasic response induced by URP (anaesthetized rats; 1000 nmol/kg, URP 10 nmol/kg): no effect; Response to a second hUII injection after pre-treatment (anaesthetized rats; [Bip^4]URP 1000 nmol/kg 30 min before two hUII doses (10 nmol/kg, 30 min interval)): complete absence of a response

From US9340575B2, “Agonists and antagonists of the urotensinergic system” (INSTITUT NATIONAL DE LA RECHERCHE SCIENTIFIQUE, priority 2011, dated 2016)
